{"source": "patent US20050267055A1", "about": "“Agent for improvement of glucose tolerance” (USE-TECHNO CORPORATION, priority 2003, published 2005)", "assay": "Glucose tolerance test in a dog after corosolic acid administration", "type": "in vivo", "conditions": "dog (beagle), 20 mg/kg of body weight corosolic acid single administration; 75 g grape sugar oral load; tests up to 28 days after administration vs 60 days before", "procedure": "(Glucose Tolerance Improving Effect of Corosolic Acid Administration in a Dog)\nA dog (beagle) was used as the test animal. 20 mg/kg of body weight of purified corosolic acid extracted from banaba leaves was administered to the animal, and the glucose tolerance improvement effect was evaluated.\nThe glucose tolerance was evaluated by performing glucose tolerance tests according to the procedure described in (1)-(3) below. A glucose tolerance test was performed 60 days before corosolic acid administration, immediately after corosolic acid administration, and at 7 days, 14 days, 21 days and 28 days after corosolic acid administration. At time points other than immediately after corosolic acid administration, the glucose tolerance test was performed immediately after the same dose of D-sorbitol was orally administered as a placebo instead of corosolic acid. • (1) 75 g of grape sugar is administered orally to the dog. • (2) Blood is collected from the dog's vein at 0 minute, 30 minutes, 60 minutes, 90 minutes, 120 minutes, 180 minutes and 240 minutes after grape sugar administration, and the blood glucose level of the collected blood is measured using GLUTEST SENSOR (trade name, manufactured by SANWA KAKAGU KENKYUSHO CO.,LTD). • (3) The total of 7 blood glucose levels measured above in (2) is represented by ΣBG [mg/dl]."}
{"smiles": "C[C@H]1[C@H](C)CC[C@]2(C(=O)O)CC[C@]3(C)C(=CC[C@@H]4[C@@]5(C)C[C@@H](O)[C@H](O)C(C)(C)[C@@H]5CC[C@]43C)[C@H]12", "note": "[corosolic acid]", "values": [{"measurement": "ΣBG (total of 7 blood glucose levels in glucose tolerance test)", "value": "lower values for 28 days after corosolic acid adminisration than before corosolic acid adminisration"}]}
